# Measurements taken from US8367709B2, “Dipeptide analogs as coagulation factor inhibitors” (priority 2007, dated 2013).
# Counter-ions that a name gives are not always drawn.
# Target: T1, purified human Factor XIa (Homo sapiens, UniProt P03951)
# T1 construct: purchased Haematologic Technologies
# Assay: Factor XIa assay (chromogenic substrate S-2366 hydrolysis, Ki)
# Format: biochemical
# Details: not given
# Experimental: The effectiveness of compounds of the present invention as inhibitors of the coagulation factors XIa, VIIa, IXa, Xa, XIIa, plasma kallikrein or thrombin, can be determined using a relevant purified serine protease, respectively, and an appropriate synthetic substrate. The rate of hydrolysis of the chromogenic or fluorogenic substrate by the relevant serine protease was measured both in the absence and presence of compounds of the present invention. […] A decrease in the rate of absorbance or fluorescence change in the presence of inhibitor is indicative of enzyme inhibition. Such methods are known to one skilled in the art. The results of this assay are expressed as the inhibitory constant, Ki.
# Values of Ki were determined by allowing the protease to react with the substrate in the presence of the inhibitor. Reactions were allowed to go for periods of 20-180 minutes (depending on the protease) and the velocities (rate of absorbance or fluorescence change versus time) were measured. The following relationships were used to calculate Ki values:
# vs/vo=A+((B−A)/1+((IC50/(I)^n))) and […]
# T1 sequence (P03951 19-387): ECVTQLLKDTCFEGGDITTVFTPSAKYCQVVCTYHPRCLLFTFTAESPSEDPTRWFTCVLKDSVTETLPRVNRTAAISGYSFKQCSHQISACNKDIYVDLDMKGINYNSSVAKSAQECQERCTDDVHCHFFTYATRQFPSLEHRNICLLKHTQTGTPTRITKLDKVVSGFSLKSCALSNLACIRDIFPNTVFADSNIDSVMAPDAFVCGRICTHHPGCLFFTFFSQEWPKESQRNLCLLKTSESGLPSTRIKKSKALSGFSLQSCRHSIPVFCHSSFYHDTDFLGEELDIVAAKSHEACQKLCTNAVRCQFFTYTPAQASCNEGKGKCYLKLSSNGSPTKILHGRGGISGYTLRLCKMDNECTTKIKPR
# T1 sequence (P03951 388-625): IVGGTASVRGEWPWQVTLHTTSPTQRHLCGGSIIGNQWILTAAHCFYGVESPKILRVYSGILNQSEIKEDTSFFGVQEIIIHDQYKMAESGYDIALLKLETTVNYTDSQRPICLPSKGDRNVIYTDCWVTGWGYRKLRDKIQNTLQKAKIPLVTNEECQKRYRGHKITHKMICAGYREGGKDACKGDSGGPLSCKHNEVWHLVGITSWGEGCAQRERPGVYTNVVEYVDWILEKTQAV
row,Compound,Ki [nM]
1,"COC(=O)Nc1ccc2c(c1)CCN(C(=O)[C@H](Cc1ccccc1)NC(=O)/C=C/c1cc(Cl)ccc1-n1cnnn1)C2 [Example 127, (S,E)-methyl 2-(2-(3-(5-chloro-2-(1H-tetrazol-1-yl)phenyl)acrylamido)-3-phenylpropanoyl)-1,2,3,4-tetrahydroisoquinolin-6-ylcarbamate]",7800
2,"NCc1ccc(Cl)cc1/C=C/C(=O)N[C@@H](Cc1ccccc1)C(=O)Nc1ccc(C(=O)O)cc1 [Example 83, (S,E)-4-(2-(3-(2-(aminomethyl)-5-chlorophenyl)acrylamido)-3-phenylpropanamido)benzoic acid, TFA salt]",63.9
3,"C[C@H](NC(=O)/C=C/c1cc(Cl)ccc1-n1cnnn1)C(=O)Nc1ccc(CC(=O)O)cc1 [Example 51, (4-{(S)-2-[(E)-3-(5-chloro-2-tetrazol-1-yl-phenyl)-acryloylamino]-propionylamino}-phenyl)-acetic acid]",317
4,"O=C(/C=C/c1c(F)ccc(Cl)c1F)N[C@@H](Cc1ccccc1)C(=O)Nc1ccc(C(=O)O)cc1 [Example 15, 4-{(S)-2-[(E)-3-(3-chloro-2,6-difluoro-phenyl)-acryloylamino]-3-phenyl-propionylamino}-benzoic acid]",291

# Second part, the compound after the results:
row,Ki [nM],Compound
1,9370,"O=C1CNC(=O)c2ccc(C(=O)N[C@@H](Cc3ccccc3)C(=O)NCCc3cc(Cl)ccc3-n3cnnn3)cc2N1 [Example 187, (S)—N-(1-(5-chloro-2-(1H-tetrazol-1-yl)phenethylamino)-1-oxo-3-phenylpropan-2-yl)-2,5-dioxo-2,3,4,5-tetrahydro-1H-benzo[e][1,4]diazepine-8-carboxamide]"
2,44.4,"CS(=O)(=O)CC[C@H](NC(=O)/C=C/c1cc(Cl)ccc1-n1cnnn1)C(=O)Nc1ccc(C(=O)O)cc1 [Example 231, (S,E)-4-(2-(3-(5-chloro-2-(1H-tetrazol-1-yl)phenyl)acrylamido)-4-(methylsulfonyl)butanamido)benzoic acid]"
3,12.4,"O=C(/C=C/c1cc(Cl)ccc1-n1cnnn1)N[C@@H](CC1CCN(C(=O)c2ccccc2)C1)C(=O)Nc1ccc(C(=O)O)cc1 (stereo partly drawn) [Example 307, 4-((2S)-3-(1-benzoylpyrrolidin-3-yl)-2-((E)-3-(5-chloro-2-(1H-tetrazol-1-yl)phenyl)acrylamido)propanamido)benzoic acid]"
4,16.2,"O=C(/C=C/c1cc(Cl)ccc1-n1cnnn1)NC(Cc1cnc2ccccc2n1)C(=O)Nc1ccc(C(=O)O)cc1 (stereo not drawn) [Example 251, (E)-4-(2-(3-(5-chloro-2-(1H-tetrazol-1-yl)phenyl)acrylamido)-3-(quinoxalin-2-yl)propanamido)benzoic acid]"
5,9260,O=C(N[C@@H](Cc1ccccc1)C(=O)NCCc1cc(Cl)ccc1-n1cnnn1)c1cn2cccnc2n1 [Example 295]
6,3850,"O=C(/C=C/c1cc(Cl)ccc1-n1cnnn1)N[C@@H](Cc1ccccc1)C(=O)Nc1cccn2c(C(F)(F)F)nnc12 [Example 142, (S,E)-3-(5-chloro-2-(1H-tetrazol-1-yl)phenyl)-N-(1-oxo-3-phenyl-1-(3-(trifluoromethyl)-[1,2,4]-triazolo[4,3-a]pyridin-8-ylamino)propan-2-yl)acrylamide]"
7,2330,"O=C(/C=C/c1cc(Cl)ccc1-n1cnnn1)N[C@H](C(=O)Nc1ccc(C(=O)O)cc1)[C@@H]1CCCNC1 [Example 262, 4-((S)-2-((E)-3-(5-chloro-2-(1H-tetrazol-1-yl)phenyl)acrylamido)-2-((R)-piperidin-3-yl)acetamido)benzoic acid]"
8,32.5,"CC(C)(C)SC[C@H](NC(=O)/C=C/c1cc(Cl)ccc1-n1cnnn1)C(=O)Nc1ccc(C(=O)O)cc1 [Example 282, (R,E)-4-(3-(tert-butylthio)-2-(3-(5-chloro-2-(1H-tetrazol-1-yl)phenyl)acrylamido)propanamido)benzoic acid]"

# Same assay, conditions: purified human Factor XIa 75-200 pM, substrate S-2366, 50 mM HEPES pH 7.4; read-out: Factor XIa Ki
row,Compound,Ki [nM]
1,"O=C(/C=C/c1cc(Cl)ccc1-n1cnnn1)N[C@@H](Cc1ccccc1)C(=O)Nc1nc2ccc(F)cc2s1 [Example 97, (S,E)-3-(5-chloro-2-(1H-tetrazol-1-yl)phenyl)-N-(1-(6-fluorobenzo[d]thiazol-2-ylamino)-1-oxo-3-phenylpropan-2-yl)acrylamide]",533
2,"COC(=O)Nc1ccc(NC(=O)[C@H](Cc2ccccc2)NC(=O)/C=C/c2cc(Cl)ccc2-n2cnnn2)c(Cl)c1 [Example 14, (3-chloro-4-{(S)-2-[(E)-3-(5-chloro-2-tetrazol-1-yl-phenyl)-acryloylamino]-3-phenyl-propionylamino}-phenyl)-carbamic acid methyl ester]",2960
3,"O=C(/C=C/c1cc(Cl)ccc1-n1cnnn1)N[C@@H](Cc1ccccc1)C(=O)Nc1ccc(N2CCSCC2)cc1 [Example 99, (S,E)-3-(5-chloro-2-(1H-tetrazol-1-yl)phenyl)-N-(1-oxo-3-phenyl-1-(4-thiomorpholinophenylamino)propan-2-yl)acrylamide, TFA salt]",1480
4,"O=C(/C=C/c1cc(Cl)ccc1-n1cnnn1)N[C@@H](Cc1ccccc1)C(=O)Nc1ncc(C(=O)O)s1 [Example 21, 2-{(S)-2-[(E)-3-(5-chloro-2-tetrazol-1-yl-phenyl)-acryloylamino]-3-phenyl-propionylamino}-thiazole-5-carboxylic acid]",105
5,(4-{(S)-2-[(E)-3-(5-chloro-2-tetrazol-1-yl-phenyl)-acryloylamino]-3-phenyl-propionylamino}-cyclohexyl)-carbamic acid methyl ester [Example 11],4440
6,"O=C(/C=C/c1cc(Cl)ccc1-n1cnnn1)N[C@@H](Cc1ccccc1)C(=O)Nc1ccc2c(=O)[nH][nH]c(=O)c2c1 [Example 36, (E)-3-(5-chloro-2-tetrazol-1-yl-phenyl)-N—[(S)-1-(1,4-dioxo-1,2,3,4-tetrahydro-phthalazin-6-ylcarbamoyl)-2-phenyl-ethyl]-acrylamide]",33.9

# Results, then the compound that gave them:
row,Ki [nM],Compound
1,38.1,"COP(=O)(CCOC(=O)Nc1ccc(NC(=O)[C@H](Cc2ccccc2)NC(=O)/C=C/c2cc(Cl)ccc2-n2cnnn2)cc1)OC [Example 171, (S,E)-2-(dimethoxyphosphoryl)ethyl 4-(2-(3-(5-chloro-2-(1H-tetrazol-1-yl)phenyl)-acrylamido)-3-phenylpropanamido)phenylcarbamate]"
2,6.09,"O=C(/C=C/c1cc(Cl)ccc1-n1cnnn1)N[C@@H](Cc1cccnc1)C(=O)Nc1ccc(C(=O)O)cc1 [Example 249, (S,E)-4-(2-(3-(5-chloro-2-(1H-tetrazol-1-yl)phenyl)acrylamido)-3-(pyridin-3-yl)propanamido)benzoic acid]"
3,2.41,"O=C(/C=C/c1cc(Cl)ccc1-n1cnnn1)N[C@@H](Cc1cccs1)C(=O)Nc1ccc(C(=O)O)cc1 [Example 248, (S,E)-4-(2-(3-(5-chloro-2-(1H-tetrazol-1-yl)phenyl)acrylamido)-3-(thiophen-2-yl)propanamido)benzoic acid]"
